Data from PMC3532055 (Journal of medicinal chemistry, 2012).

Assays:
α2β2 = α2β2 (Rattus norvegicus, UniProt P12389+P12390); test: [3H]epibatidine competition binding, rat α2β2 nAChR; conditions: read-out: Ki α2β2, ± SEM
BALB/cJ male mice = test: Mouse forced swim test; conditions: vs vehicle
α7-nAChRs [1] = molecular target: T1, α7-nAChRs (Rattus norvegicus, UniProt Q05941); test: Binding test at α7-nAChRs
α7-nAChRs [2] = molecular target: T1, α7-nAChRs; test: Binding test at α7*-nAChRs; conditions: endogenous receptors prepared from rat forebrain
human α7-nAChRs = conditions: read-out: Ki human α7-nAChRs; cited from earlier work
[3] = 5, 10, and 30 mg/kg ip, 30 min before 6 min trial

c1ncc(-c2cc(CCN3CCOCC3)no2)cc1OC[C@@H]1CCN1 [Compound 27, 4-[2-[5-[5-(2(S)-Azetidinylmethoxy)-3-pyridinyl]-3-isoxazolyl]ethyl]morpholine]
Ki (α2β2): 12.3 ± 2.1 nM

FC(F)CCc1cc(-c2cncc(OC[C@@H]3CCN3)c2)on1 [Compound 25, 3-(2(S)-Azetidinylmethoxy)-5-[3-(3,3-difluoropropyl)-5-isoxazolyl]pyridine]
immobility in the mouse forced swim test (BALB/cJ male mice; [3]): reduced immobility
activity at α7-nAChRs (α7-nAChRs [1]): no activity
activity at α7*-nAChRs (α7-nAChRs [2]): no activity

CN[C@H]1CC[C@@H](c2ccc(Cl)c(Cl)c2)c2ccccc21 [sertraline, reference compound]
immobility in the mouse forced swim test (BALB/cJ male mice; 20 mg/kg ip, positive control): expected decrease in immobility

CCc1cc(-c2cncc(OC[C@@H]3CCN3)c2)on1 [Compound 38, 3-(2(S)-Azetidinylmethoxy)-5-(3-ethyl-5-isoxazolyl)pyridine]
immobility in the mouse forced swim test (BALB/cJ male mice; 1, 3, 5, 10, and 30 mg/kg ip, 30 min before 6 min trial): reduced immobility
activity at α7-nAChRs (α7-nAChRs [1]): no activity
activity at α7*-nAChRs (α7-nAChRs [2]): no activity

c1ncc(-c2cc(CCN3CCOCC3)no2)cc1OC[C@@H]1CCCN1 [Compound 28, 4-[2-[5-[5-(2(S)-Pyrrolidinylmethoxy)-3-pyridinyl]-3-isoxazolyl]ethyl]morpholine]
Ki (α2β2): 74 ± 13 nM

c1cncc(OC[C@@H]2CCN2)c1 [Compound A-85380, 3-(2(S)-azetidinylmethoxy) pyridine]
Ki (human α7-nAChRs): 148 nM

FCCCc1cc(-c2cncc(OC[C@@H]3CCN3)c2)on1 [Compound 26, 3-(2(S)-Azetidinylmethoxy)-5-[3-(3-fluoropropyl)-5-isoxazolyl]pyridine]
immobility in the mouse forced swim test (BALB/cJ male mice; [3]): reduced immobility

OCCc1cc(-c2cncc(OC[C@@H]3CCN3)c2)on1 [Compound 13, 2-[5-[5-((S)Azetidin-2-ylmethoxy)-3-pyridinyl]-3-isoxazolyl]ethanol]
activity at α7-nAChRs (α7-nAChRs [1]): no activity
activity at α7*-nAChRs (α7-nAChRs [2]): no activity
